In publication PMC5775280, “Functional Characterization and Signaling Systems of Corazonin and Red Pigment Concentrating Hormone in the Green Shore Crab, Carcinus maenas” (Frontiers in Neuroscience, 2018):
Peptide text beside a SMILES is read from it.

Tests used:
[1] = tested on: red and black epidermal chromatophores, dactyl of the 5th walking leg; assay: Chromatophore pigment migration bioassay in vivo; design: species or system Carcinus maenas; details: injection after 40 min dispersion with 5 pmol PDH, 0.1–100 pmol/crab for RPCH or AKH, 100 pmol/crab for CRZ or ACP, scored 5 and 20 min after injection
Experimental: Pigmentary effector activity of […], Locusta migratoria AKH-I, and ACP were measured in vivo, using small (15-20 mm carapace width) C. maenas. Crabs were firstly adapted to a white background, light intensity 300 lx for 1 h. Pigment dispersion of red and black chromatophores in the […] of the 5th walking leg were microscopically observed and indices of dispersion scored according to Hogben and Slome ([1931]). Red and black chromatophores were firstly fully dispersed by injection of 5 pmol C. maenas pigment dispersing hormone ([…]) in 10 μl saline into the hypobranchial sinus, using hand-drawn glass microcapillaries. Chromatophore dispersion indices were scored at 0, 20, 40 min. Peptides were then injected and chromatophores subsequently scored after 5 and 20 min.

[2] = Hemolymph glucose levels after peptide injection; assay type: in vivo, Carcinus maenas; details: injection 100 pmol, n = 8
Experimental: (§1) Adipokinetic and glucose mobilizing activity of […] and ACP were performed by measurement of triglycerides in hemolymph ([…] et al., [2014]) and glucose (Chung and Webster, [1996]). Hemolymph samples (ca. 100 μl) were taken from crabs injected with each peptide at 0 and 90 min, and subsequently assayed.

[3] = Hemolymph triglyceride levels after peptide injection; assay type: in vivo, Carcinus maenas; details: mean ± 1 SEM, n = 6, SEM
Experimental: as §1

[4] = as above; assay type: in vivo, Carcinus maenas; details: lipid mobilization bioassay
[5] = molecular target: T1, C. maenas CRZR (corazonin receptor) (Carcinus maenas, UniProt A0A2L0WQE5); assay: Aequorin luminescence Ca2+ mobilization in CHO-K1-Aeq cells transiently expressing CRZR; assay type: cell-based
T1 sequence (A0A2L0WQE5 1-617): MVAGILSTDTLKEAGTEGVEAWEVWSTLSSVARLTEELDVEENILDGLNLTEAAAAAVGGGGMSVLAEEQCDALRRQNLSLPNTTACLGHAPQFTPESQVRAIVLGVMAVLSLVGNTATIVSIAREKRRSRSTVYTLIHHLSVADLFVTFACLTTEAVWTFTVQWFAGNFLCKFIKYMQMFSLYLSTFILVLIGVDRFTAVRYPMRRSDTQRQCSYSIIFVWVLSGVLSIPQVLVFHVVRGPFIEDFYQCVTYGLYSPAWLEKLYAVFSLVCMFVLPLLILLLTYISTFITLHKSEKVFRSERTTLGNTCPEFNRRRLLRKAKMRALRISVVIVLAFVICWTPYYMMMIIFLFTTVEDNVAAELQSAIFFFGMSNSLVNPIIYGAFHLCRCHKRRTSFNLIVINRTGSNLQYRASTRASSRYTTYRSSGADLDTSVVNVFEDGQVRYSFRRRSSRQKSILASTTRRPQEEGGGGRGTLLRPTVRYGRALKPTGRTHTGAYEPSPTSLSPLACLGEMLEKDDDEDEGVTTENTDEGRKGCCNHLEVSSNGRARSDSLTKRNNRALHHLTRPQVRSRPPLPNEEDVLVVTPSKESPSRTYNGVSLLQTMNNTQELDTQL
Experimental: Chinese hamster ovary (CHO-K1) cells containing stably expressed apoaequorin (Perkin Elmer, Boston, MA) and either Gα16 or Gq subunit (control cells) were cultured in Dulbecco's Modified Eagle Medium (DMEM) F-12 Nutrient Mixture GlutaMax (Gibco®) supplemented with 10% fetal bovine serum (Gibco®). Cells were maintained in vented T75 flasks at 37°C in 5% CO2.
Cells grown in a monolayer to approximately 60% confluency in T75 flasks were transfected with pcDNA3.1 constructs using FugeneHD (Promega) according to the manufacturer's recommendations. Briefly, transfection medium was prepared by combining 800 μl Opti-MEM® (Gibco) with 10 μg vector and 30 μl Fugene HD in a 2 ml polystyrene tube and incubated for 10 min at room temperature. The transfection reagent was added to 5 ml of fresh culture media and the cells incubated overnight at 37°C in 5% CO2. After 24 h, an additional 10 ml of culture media were added to the flasks and the cells returned to 37°C at 5% CO2 for a further overnight incubation.
On the day of the assay, cells were detached from the culture flask by incubating for 12 min in 5 ml 0.2% EDTA in PBS. The cells were washed with 10 ml DMEM clear DMEM/F-12 containing L-glutamine, 15 mM HEPES and moved to 50 ml centrifuge tubes. Cells were centrifuged for 5 min at 260 g and resuspended to a concentration of 5 × 10^6 cells ml^−1 in 0.2 μm filtered BSA medium (DMEM/F-12 containing L-glutamine, 15 mM HEPES + 0.1% BSA). Coelenterazine h (Invitrogen, Paisley, UK) was added to a concentration of 5 μM and the cells incubated for 4 h in the dark at room temperature whilst gently rocking. The cells were diluted 10-fold and incubated for a further 60 min before use in the assay. Synthetic peptides (GeneCust, Dudelange, Luxembourg) were reconstituted in 30% acetonitrile, dried in small aliquots by vacuum centrifugation and subsequently redissolved in BSA medium. Fifty microliter aliquots were then dispensed into quadruplicate wells of a white 96-well plate (OptiPlate, PerkinElmer). Cell suspensions were gently stirred and injected in 50 μl aliquots into each well using a Mithras LB 940 microplate reader (Berthold Technologies, Bad-Wildbad, Germany) and light emission (Ca^2+ response) recorded for 30 s. Cells were then lysed by injection of 0.3% Triton-X in BSA medium and light emission recorded for a further 10 s to measure total Ca^2+ response. BSA medium was used for blank measurements (6 replicate wells per plate) and mock transfection with empty vectors carried out for negative controls. Data was analyzed using MikroWin v5.18 (Mikrotek Laborsysteme GmbH) and SigmaPlot v.13 (Systat Software, Inc.). Receptor response was normalized against total Ca^2+ response.

## CC(C)C[C@H](NC(=O)[C@@H]1CCC(=O)N1)C(=O)N[C@@H](CC(N)=O)C(=O)N[C@@H](Cc1ccccc1)C(=O)N[C@@H](CO)C(=O)N1CCC[C@H]1C(=O)NCC(=O)N[C@@H](Cc1c[nH]c2ccccc12)C(N)=O [RPCH] (HELM PEPTIDE1{[Glp].L.N.F.S.P.G.W.[am]}$$$$V2.0)
[1]
  pigment migration (concentration) in red and black epidermal chromatophores: dose-dependent concentration of pigment in the red (but not the black) chromatophores
[2]; eyestalk removal, 90 min
  effect of eyestalk removal on the glucose response: completely abolished this response
[2]; within 90 min, Student's matched pair t-test P < 0.01
  effect on circulating glucose levels, intact crabs: significantly raised circulating glucose levels
[3]; injection 100 pmol per crab
  hemolymph triglyceride levels, 0 min: 0.14 ± 0.14 µg/µL
[3]; injection 100 pmol per crab, no significant change over 90 min
  hemolymph triglyceride levels, 90 min: 0.86 ± 0.4 µg/µL
[3]; repeat experiment, injection 10 pmol
  hemolymph triglyceride levels, 0 min: 0.49 ± 0.27 µg/µL
[3]; repeat experiment, injection 10 pmol, no significant change
  hemolymph triglyceride levels, 90 min: 0.20 ± 0.28 µg/µL
[3]; repeat experiment, injection 100 pmol
  hemolymph triglyceride levels, 0 min: 1.65 ± 0.59 µg/µL
[3]; repeat experiment, injection 100 pmol, no significant change
  hemolymph triglyceride levels, 90 min: 0.78 ± 0.44 µg/µL
[4]
  effect on hemolymph diacylglycerol levels: completely without effect
[5]; 0.6–20 μM
  binding to CRZR at extremely high concentrations: some dose-dependent binding
[5]; CHO-K1-Aeq cells (without Gα16) transiently expressing CRZR, luminescence response normalized to total Ca2+ response, dose response curves, means of n = 4
  EC50: > 20 µM
